The test system of assay [1] is BALB/C mice. The assay is described as follows: Marble Burying test in mice. It counts as in vivo. The settings on record: ip; Diazepam 0.75 mg/kg; FQSE 5 mg/kg; 30 minutes. The method, then:
(§1) After an adaptation period, the test substance was intraperitoneally injected into mice. Behavioral parameters were measured in 30 minutes after injection. The tests were administered as follows: day 1—the Open field test, day 3—the Elevated plus maze test, day 5—the Marble burying test, days 12-13—the Porsolt swim (two-day modification) test.
In the marble burying test, the installation is a standard T3 cage (19 cm×29 cm×13 cm) filled with bedding material. The standard glass marbles (15 mm in diameter, weight 5.2 g, arbitrary color) were used for the test. Twenty marbles were evenly spaced on the surface in 4 rows, 5 pieces each. The animal was placed in the testing cage for 30 minutes. At the end of the period, after the animal was carefully removed, the number of marbles that were more than two-thirds covered with bedding material was counted.
(§2) All substances were injected intraperitoneally in a volume of 10 μl of solution per 1 gram of animal weight 30 minutes prior to behavioral testing.

Assay [2] has as its system Wistar rats after chronic unpredictable mild stress. The assay is described as follows: CUMS model: Social Interaction test. It counts as in vivo. As to conditions: FQSE 0.5 mg/kg i.n.; diazepam 0.5 mg/kg i.p.; 4 injections; vs control non-stressed rats. The method, then: During stress, the animals were placed in individual cells and exposed to stressful conditions each day for 26 days. Two stressors were used daily, applied in the following order: • Day 1. 10 am-6 pm, rats were placed in a cold room for an hour. From 6 PM to 10 am the lights were turned on and off every 2 hours. • Day 2. 10 am-6 pm, cage tilted to 45°. From 6 PM to 10 am water deprivation. • Day 3. 10 am-6 pm, stroboscopic light. From 6 PM to 10 am the light was left on overnight. • Day 4. 10 am-6 pm, wet bedding. From 6 PM to 10 am the animals were put in a small mouse cage. • Day 5. 10 am-6 pm, no bedding. From 6 PM to 10 am the lights were turned on and off every 2 hours. • Day 6. 10 am-6 pm, a new rat was placed in the cage (6-month-old). From 6 PM to 10 am the light was left on overnight. • Day 7. 10 am-6 pm, white noise. From 6 PM to 10 am a stroboscopic light was turned on at night. • Day 8-26. Repetition of previously used stressors in the specified sequence.
Experimental substances were administered daily starting from the 58-59 day of the experiment. […]
To assess the social activity and depressive state of the animals, a test that evaluates a social interaction of rodents was used. […] Within 10 minutes the duration and number of social contacts with the juvenile male and number of threatening and aggressive contacts were recorded. […]

Assay [3] has as its system BALB/C mice. Description: Elevated Plus Maze test in mice. It counts as in vivo. The settings on record: ip, Diazepam 0.75 mg/kg. The method, then: as §1
In the elevated plus maze test, a test arena includes two open and two closed arms crossed in the middle. The arm length is 30 cm, the height of the closed arms side walls is 15 cm. The entire installation is raised 70 cm above the floor. The open arms have bright uniform illumination of about 400 lux, and the closed arms have illumination of about 30-40 lux. Mice were placed at the junction of the four arms of the maze (center), facing an open arm. The following behavioral parameters were automatically registered by the EthoVision, Noldus program within 5 minutes of the experiment: a total distance (cm), a time of motion (if the speed is more than 5 cm/s), an immobility (if the speed is less than 0.2 cm/sec), a mean and maximum velocity, and the number of episodes of motor activity and “freezing”. The same set of parameters, as well as a latent period and the duration of stay, were measured for the central sector, open and closed arms separately. (Manufactured by OpenScience, Russia).
as §2
The second group of parameters includes a time on open arms (in seconds) (FIG. 35), a number of open arms entries (FIG. 36), a number of risk behavior (number of rearings and dangle events, as shown in FIG. 37]), and an anxiety index (FIG. 38). The anxiety index (AI) was calculated using the following formula: AI=100*(1−(time on open arms/total test time+open arms entries/total number of entries)/2)

The target in assay [4] is FQSE (SEQ ID NO:10)-specific binding sites in the rat cortex. Description: Radioligand analysis with [3H] FQSE on rat cortex membranes. The procedure: After decapitation, the tissues were immediately frozen in liquid nitrogen and stored in a low-temperature refrigerator at −80° C. On the day of the experiment, brain tissue (cortex, about 300 mg) was homogenized in a Teflon-glass Potter homogenizer 1:25 W:V in the buffer (50 mM Tris-HCl, pH 7.4). The homogenate was centrifuged at 40,000 g for 20 min. The obtained precipitate was homogenized in a buffer (50 mM Tris-HCl; pH=7.4) and centrifuged again at 40,000 g for 20 min. A similar procedure was performed again. The precipitate was resuspended in 15 ml of the same buffer and used for the radioligand analysis.
The incubation mixture (final volume 0.5 ml) contained 50 μl […]
At the end of the incubation, the samples were filtered through Ge/C glass fiber filters (Whatman) previously moistened with 0.3% polyethyleneimine for 2 hours at room temperature. Each tube was washed twice with cold buffer, then the filters were washed twice with the same volume of buffer.
The filters were air-dried and transferred to scintillation vials. Filters were poured with 5 ml of toluene-based scintillation liquid (4 g PPO, 0.2 g POPOP per liter of toluene).
To construct the curves of the radioactive ligand's displacement each concentration of the test substance was taken in 3 replications. […]

For assay [5], the system named is BALB/C mice. Description: Porsolt swim test (two-day modification) in mice. It is filed as in vivo. The settings on record: ip; Diazepam 0.75 mg/kg. The method, then: as §1
In the Porsolt Swim test, two tests were conducted in two days. The installation is a transparent cylinder, 30 cm in height, 10 cm in diameter, filled with water (temperature about 21-23° C.) to the mark of 25 cm height. On the first day each animal was placed into the cylinder for 10 minutes. Behavioral parameters were not registered. On the second day, the animals were placed into the cylinder for 5 minutes. The following parameters were measured: duration of active (vigorous movements of all limbs) and passive (weak movements of hind limbs) swimming, as well as immobility (immobilization) (Porsolt et al. (1977) Behavioral despair in mice: a primary screening test for antidepressants. Arch Int Pharmacodyn Ther. 229(2):327-36). After each test, the mice were placed into a heated cell to dry.

Read-outs that look alike come from different tables or passages of the source.

Results on one compound are retold here after US12178838B2, “Synthetic neuromodulatory peptides” (Lactocore, Inc., priority 2019, dated 2024).

As usually defined, the IC50 is the concentration that gives 50% inhibition. For `CN1C(=O)CN=C(c2ccccc2)c2cc(Cl)ccc21` [Diazepam], the “number of marbles buried” value with BALB/C mice [1] is listed as 1.2±0.39. The “duration of social contacts” value in assay [2] is “significant decrease”. For the same compound, the “Time on open arms” value in the assay on BALB/C mice [3] (FQSE 20 mg/kg) was determined as 67.4 ± 18.43 s. In addition, the Open arms entries in the assay with BALB/C mice [3] (FQSE 1 mg/kg) is 6.5±0.99. Further, in the assay with BALB/C mice [3] (FQSE 1 mg/kg), the “The number of risk behavior” value is on record as 15±2.8. For the same compound, the total distance in the assay with BALB/C mice [3] (FQSE 1 mg/kg) turned out to be 1219±91.4 cm. Further, the IC50 was 52 ± 0.3 µM in assay [4] (read-out: IC50 after different incubation times: 50 min), 89 ± 0.3 µM in assay [4] (read-out: IC50 after different incubation times: 1 h), 95 ± 0.2 µM in assay [4] (read-out: IC50 after different incubation times: 1 h 30 min) and around 100 µM in assay [4] (read-out: IC50 for the [3H]-FQSE binding sites in rat cortex membranes). In addition, the “tested parameters (duration of active and passive swimming, immobility time)” value in the assay on BALB/C mice [5] is “did not lead to the changes in any tested parameter”.
